According to the METLIN SMRT retention time set (Domingo-Almenara et al. 2019):

Experiment: gradient 5% acetonitrile 3 min, to 50% in 2 min, to 85% in 15 min, held 3 min, 100 µL/min
Details: column: Zorbax Extend-C18 2.1 x 50 mm; eluents: water / acetonitrile, 0.1% formic acid
Method in brief: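 The system's dead and dwell volumes were 40 μL and 900 μL, with a Zorbax Extend-C18 column (2.1 × 50 mm, 1.8 μm) run at 100 μL/min in water and acetonitrile containing 0.1% formic acid each. Pure standards were analyzed in mixtures of ~100 molecules by HPLC–quadrupole time-of-flight mass spectrometry in positive and negative ionization mode. Retention time was assigned from computationally picked, manually inspected adduct peaks.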

Compound: COc1cccc(-c2noc(C3CCCN3C(=O)Nc3ccc4c(c3)OCCO4)n2)c1 (stereo not given)
- RP-LC retention time: 886 s

Compound: Cc1c(C(=O)N2CCSCC2)cnn1-c1ccc(-c2nc(C(C)(C)C)no2)cn1
- RP-LC retention time: 1070 s

Compound: O=C(CCc1cccc2[nH]ccc12)NCc1ccc(N2CCOCC2)cc1
- RP-LC retention time: 714 s

Compound: Cc1ccc(Cl)cc1NC(=O)CSc1cc(N2CCN(c3ccccc3F)CC2)ncn1
- RP-LC retention time: 1280 s

Compound: COc1ccccc1NC(=O)Cn1c(=O)n(-c2ccc(F)cc2)c(=O)c2c1cc(C)n2C
- RP-LC retention time: 833 s

Compound: CC1CCN(c2ncc3c(n2)CCC(C(=O)NCCC2=CCCCC2)C3)CC1 (stereo not given)
- RP-LC retention time: 974 s

Compound: O=C(Nc1ccc(Nc2ccccc2)cc1)Nc1ccccc1Cl
- RP-LC retention time: 1130 s

Compound: O=C(NCCCn1cccc1)c1ccno1
- RP-LC retention time: 644 s

Compound: COc1ccc(OCc2noc(CNS(=O)(=O)Cc3ccccc3)n2)cc1
- RP-LC retention time: 824 s

Compound: Cc1noc(C)c1S(=O)(=O)N1CCCC(Cn2c(C3CC3)nc3cccnc32)C1 (stereo not given)
- RP-LC retention time: 720 s

Compound: Cc1cccc(NC(=O)C2CCN(S(C)(=O)=O)c3cc(C)ccc3O2)c1 (stereo not given)
- RP-LC retention time: 943 s

Compound: O=c1cc(-c2ccccc2)oc2cc(O)c(O)cc12
- RP-LC retention time: 750 s

Compound: Cc1ccc(NC(=O)N2CCCC(C)(C(=O)NCc3ccccc3)C2)cc1F (stereo not given)
- RP-LC retention time: 945 s

Compound: O=C(Cn1nc2c(cc1=O)CCCCC2)Nc1nc(-c2cccnc2)cs1
- RP-LC retention time: 646 s

Compound: O=C(C1CC(=O)N(c2ccc(F)cc2)C1)N1CCC(c2c[nH]c3ccccc23)CC1 (stereo not given)
- RP-LC retention time: 810 s

Compound: CC(=O)N1CCC2(CC1)OC(=O)C(C)=C2C(=O)NCCC1=CCCCC1
- RP-LC retention time: 738 s

Compound: Cc1ccc(-c2nc3ccc(C)cn3c2Nc2ccccc2C)cc1
- RP-LC retention time: 788 s

Compound: c1ccc(N2CCN(Cc3cccn3-c3nnc(N4CCCCC4)s3)CC2)nc1
- RP-LC retention time: 627 s

Compound: CCCOC(=O)c1cnc2nc(C)ccc2c1NCc1ccc(OC)cc1
- RP-LC retention time: 750 s

Compound: COC(=O)c1cc(OCC(=O)Nc2cccc(Cl)c2)c2ccccc2n1
- RP-LC retention time: 821 s

Compound: Cc1csc(-c2cc(S(=O)(=O)N3CCCC3)cn2CC(=O)N2CCCCC2)n1
- RP-LC retention time: 875 s

Compound: CN1CCN(c2ncc3c(n2)CC(c2cc(F)cc(F)c2)CC3=O)CC1 (stereo not given)
- RP-LC retention time: 660 s

Compound: CC(C)NC(=O)C1CCCN(c2nc3ncn(CC(=O)Nc4cc(F)cc(F)c4)c(=O)c3s2)C1 (stereo not given)
- RP-LC retention time: 747 s

Compound: O=C(Cn1nc2c(cc1=O)CCCC2)Nc1nc(-c2ccncc2)cs1
- RP-LC retention time: 606 s

Compound: Cc1nc2cc(C(=O)N3CCOCC3)ccc2n(C)c1=O
- RP-LC retention time: 596 s

Compound: CCc1nn2c(CNC(=O)c3ccc(C)c(F)c3)c(-c3ccccc3)nc2s1
- RP-LC retention time: 985 s

Compound: CSc1ccc(Cc2nnc(NC(=O)c3cccc(C(F)(F)F)c3)o2)cc1
- RP-LC retention time: 907 s

Compound: Cc1cc2n(n1)CCC(=O)N2CCCC(=O)NCc1ccco1
- RP-LC retention time: 619 s

Compound: Cc1ccc(NC(=O)N(C)CC2CCOC2)c(Cl)c1 (stereo not given)
- RP-LC retention time: 766 s

Compound: COCC(=O)N1CCC(N2C[C@H](O)C[C@H]2C(=O)NC2CCCCC2)CC1
- RP-LC retention time: 573 s

Compound: Clc1ccccc1-c1noc(-c2nc(-c3ccncc3)no2)n1
- RP-LC retention time: 1130 s

Compound: COc1ccc(-c2nc3ccc(C)cn3c2Nc2ccc(Cl)cc2)cc1
- RP-LC retention time: 782 s

Compound: CC1=C(c2ccc(F)cc2)S(=O)(=O)N=C1N1CCCN(C(=O)c2ccccc2F)CC1
- RP-LC retention time: 817 s

Compound: Cc1ccc(C)c(NC(=O)Cc2c(C(=O)O)c(C)cn2C)c1
- RP-LC retention time: 795 s

Compound: CSc1ccc(-c2nc3ccccn3c2Nc2ccc(Cl)cc2)cc1
- RP-LC retention time: 779 s

Compound: CCCCN(CC)C(=O)C1CCCN(c2nc3cccnc3s2)C1 (stereo not given)
- RP-LC retention time: 914 s

Compound: CC(C)Cn1cc(S(=O)(=O)N2CCN(c3cccc(Cl)c3)CC2)c2cccnc21
- RP-LC retention time: 1250 s

Compound: CCOc1ccccc1-c1noc(CN2C(=O)COc3ccccc32)n1
- RP-LC retention time: 963 s

Compound: CCN1C(=O)c2cc(C(=O)NCc3ccccc3Cl)nn2CC1(C)C(=O)NC1CCCC1 (stereo not given)
- RP-LC retention time: 817 s

Compound: O=C(NCc1ccco1)C1CCCN(c2ccc(-c3ccccc3)nn2)C1 (stereo not given)
- RP-LC retention time: 654 s

Compound: c1cnc(-c2n[nH]c(C3CCN(Cc4ccsc4)CC3)n2)cn1
- RP-LC retention time: 559 s

Compound: CCn1cc(CCNS(=O)(=O)c2cccc(F)c2)c2cccnc21
- RP-LC retention time: 774 s

Compound: COc1ccccc1OCC(=O)N1CCN(c2nc(CN3CCOCC3)cs2)CC1
- RP-LC retention time: 613 s

Compound: COC(=O)c1ccc(NC(=O)c2sc(-c3cn(C)c4ncccc34)nc2C)cc1
- RP-LC retention time: 1080 s

Compound: CC1(C(=O)NCc2ccc(F)cc2)CN(S(C)(=O)=O)CC(=O)N1c1cccc(F)c1 (stereo not given)
- RP-LC retention time: 764 s

Compound: Cc1nc2ccccn2c(=O)c1NC(=O)Nc1cccs1
- RP-LC retention time: 566 s

Compound: Cc1cc(=O)n(CC(=O)Nc2ccc(C(F)(F)F)cc2)c(N2CCOCC2)n1
- RP-LC retention time: 759 s

Compound: CN1C(=O)c2cc(C(=O)Nc3cccc(Cl)c3)nn2CC1(C)C(=O)NC1CCCCC1 (stereo not given)
- RP-LC retention time: 860 s

Compound: CNC(=O)[C@@H]1CN(C(=O)Cn2c(=O)oc3ccccc32)C[C@H]1COC
- RP-LC retention time: 594 s

Compound: CN1CCN(CCCNC(=O)C2CCN(C(=O)c3ccc(-n4ccc5ccccc54)s3)CC2)CC1
- RP-LC retention time: 630 s

Compound: Cc1ccc(NC(=O)Nc2ccccc2)c(=O)n1CC(=O)N1CCCC1
- RP-LC retention time: 767 s

Compound: O=c1c2sccc2n(Cc2nc(-c3ccc(F)cc3)no2)c(=O)n1Cc1ccc(F)cc1
- RP-LC retention time: 1100 s

Compound: CCOc1ccc(CNC(=O)C2CCN(c3cnc4nccnc4c3)CC2)cc1
- RP-LC retention time: 698 s

Compound: CC(=O)N1CCCC(c2nc(CNC(=O)C3CCC3)cs2)C1 (stereo not given)
- RP-LC retention time: 631 s

Compound: O=C(c1cc2ccccc2[nH]1)N1CCN(c2ccc(=O)n(-c3cccc(Cl)c3)n2)CC1
- RP-LC retention time: 926 s

Compound: O=S(=O)(c1cccn2cnnc12)N(Cc1ccc(F)cc1)c1ccc(F)c(F)c1
- RP-LC retention time: 887 s

Compound: COCC(=O)Nc1nc(-c2ccc3c(c2)NC(=O)CO3)c(C)s1
- RP-LC retention time: 705 s

Compound: CC(C)Cn1cc(S(=O)(=O)NCc2cccc(Cl)c2)c2cccnc21
- RP-LC retention time: 1020 s

Compound: O=C(NCC(F)(F)F)C1CCN(C(=O)COc2ccccc2)CC1
- RP-LC retention time: 676 s

Compound: COCCCNC(=O)c1nc(Nc2ccc(C)cc2)c2ccccc2n1
- RP-LC retention time: 709 s

Compound: Cc1[nH]c(-c2ccc(Cl)cc2)cc1C(=O)NC1CCCCC1
- RP-LC retention time: 990 s

Compound: CCc1nc(-c2csc(S(=O)(=O)N3CCCC(C(=O)Nc4c(C)cccc4CC)C3)c2)no1 (stereo not given)
- RP-LC retention time: 1080 s

Compound: Cc1noc(C2CN(C(=O)Nc3cccc(Cl)c3F)CC23CCOCC3)n1 (stereo not given)
- RP-LC retention time: 783 s

Compound: COc1ccc(OC)c(-c2csc(Nc3ccc(Br)cn3)n2)c1
- RP-LC retention time: 1190 s

Compound: CC(C)c1noc(C2(NC(=O)c3cccc(Cl)c3)CCCCC2)n1
- RP-LC retention time: 1130 s

Compound: COCCCn1c(=O)c2ccccc2n(Cc2nc(-c3cccc(OC)c3)no2)c1=O
- RP-LC retention time: 1040 s

Compound: O=C(Cc1ccc([N+](=O)[O-])cc1)NC1CC(=O)N(c2ccc(Cl)cc2)C1 (stereo not given)
- RP-LC retention time: 760 s

Compound: CCOCC(=O)Nc1ccc(CC(=O)NCC(F)(F)F)cc1
- RP-LC retention time: 644 s

Compound: O=C(NC1CCc2ccccc21)C1CCN(c2ncnc3c2oc2ccccc23)CC1 (stereo not given)
- RP-LC retention time: 778 s

Compound: Cc1cc(F)ccc1S(=O)(=O)NCCc1ccsc1
- RP-LC retention time: 900 s

Compound: COc1ccc(NC(=O)c2cn(-c3ccc(C#N)cc3)cn2)cc1OC
- RP-LC retention time: 683 s

Compound: CC1Oc2ccccc2N(Cc2nc(-c3ccc(Cl)cc3)no2)C1=O (stereo not given)
- RP-LC retention time: 1160 s

Compound: Cc1ccc(-c2csc(NC(=O)c3sc(-c4ccccc4)nc3C)n2)cc1C
- RP-LC retention time: 1390 s

Compound: O=C(CN1CCN(Cc2ccccc2)C1=O)NCC1CCCCC1
- RP-LC retention time: 682 s

Compound: CCc1noc(NC(C)=O)c1-c1ccc(OC)c(S(=O)(=O)NC2CCCCC2)c1
- RP-LC retention time: 804 s

Compound: CCOC(=O)N1CCC(NC(=O)C2CCCN(c3ncnc4c3oc3ccccc34)C2)CC1 (stereo not given)
- RP-LC retention time: 679 s

Compound: Cn1cc(CN2CCCC(COc3ccccc3C(=O)N3CCOCC3)C2)c2ccccc21 (stereo not given)
- RP-LC retention time: 664 s

Compound: O=C(Nc1ccccc1)c1ccc2c(cnn2CC(=O)N2CCCCCC2)c1
- RP-LC retention time: 800 s

Compound: Cc1ccc2c(c1)N(C(=O)CSc1ccc(N3CCCC(C(=O)NC4CC4)C3)nn1)CCO2 (stereo not given)
- RP-LC retention time: 687 s

Compound: O=C1CCCN1CCCN(CC(=O)N1CCNCC1)C(=O)c1ccc(F)c(Cl)c1
- RP-LC retention time: 581 s

Compound: CCc1cccc(C)c1Nc1c(-c2ccc(C)cc2)nc2cnccn12
- RP-LC retention time: 996 s

Compound: Cc1cc2c(c(=O)n(-c3ccccc3)c(=O)n2CC(=O)Nc2ccc(C(C)C)cc2)n1C
- RP-LC retention time: 975 s

Compound: O=C(NCCC1CCCCN1S(=O)(=O)c1ccccc1)C(=O)Nc1ccccc1Cl (stereo not given)
- RP-LC retention time: 1060 s

Compound: O=C(Nc1ccc(F)cc1F)N1CCC(n2cnc3c(Cl)cccc3c2=O)CC1
- RP-LC retention time: 806 s

Compound: COc1cc(NC(=O)C2c3ccccc3C(=O)N3CCc4ccccc4C23)cc(OC)c1OC (stereo not given)
- RP-LC retention time: 776 s

Compound: Cc1cccc(CN2C(=O)C3(CCOCC3)CC2c2nnnn2C(C)(C)C)c1 (stereo not given)
- RP-LC retention time: 833 s

Compound: COc1cccc(CNC(=O)C2CCN(C(=O)c3cc4oc5ccccc5c4n3C)CC2)c1OC
- RP-LC retention time: 891 s

Compound: COC(=O)Nc1nc(CC(=O)NCc2ccco2)cs1
- RP-LC retention time: 606 s

Compound: CCNC(=O)c1nc2cccnc2n(C)c1=O
- RP-LC retention time: 615 s

Compound: CCCN1C(=O)c2cc(S(=O)(=O)NCc3ccc(C)o3)ccc2Oc2cccnc21
- RP-LC retention time: 995 s
